# From article PMC4407307 (Journal of Biomedical Science, 2015)
# Biological target: SHV-128 (Enterobacter cloacae, UniProt D5LIR5)
# Test: biochemical
# Chain of SHV-128 (D5LIR5 entry or part of it): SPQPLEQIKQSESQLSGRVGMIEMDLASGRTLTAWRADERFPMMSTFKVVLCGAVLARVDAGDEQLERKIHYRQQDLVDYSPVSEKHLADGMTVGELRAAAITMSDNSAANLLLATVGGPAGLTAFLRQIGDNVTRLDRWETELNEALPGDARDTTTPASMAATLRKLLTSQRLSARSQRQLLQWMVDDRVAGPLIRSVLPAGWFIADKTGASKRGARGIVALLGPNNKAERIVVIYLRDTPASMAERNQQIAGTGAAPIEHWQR
smiles,measurement,value
O=C(O)[C@H]1/C(=C/CO)O[C@@H]2CC(=O)N21 [clavulanic acid],IC50,4.2 µM
